{"source": "patent US8436159B2", "about": "“Glyphosate resistant class I 5-endolpyruvylshikimate-3-phosphate synthase (EPSPS)” (Monsanto Technology LLC, priority 2003, dated 2013)", "key": {"[1]": {"biological_target": "T1, maize (Zea mays) class I EPSPS variant TIPC (T102I, P106C), pMON42485 (Zea mays, UniProt O24566, P106C/T102I)", "T1 sequence (O24566 1-444 T102I/P106C)": "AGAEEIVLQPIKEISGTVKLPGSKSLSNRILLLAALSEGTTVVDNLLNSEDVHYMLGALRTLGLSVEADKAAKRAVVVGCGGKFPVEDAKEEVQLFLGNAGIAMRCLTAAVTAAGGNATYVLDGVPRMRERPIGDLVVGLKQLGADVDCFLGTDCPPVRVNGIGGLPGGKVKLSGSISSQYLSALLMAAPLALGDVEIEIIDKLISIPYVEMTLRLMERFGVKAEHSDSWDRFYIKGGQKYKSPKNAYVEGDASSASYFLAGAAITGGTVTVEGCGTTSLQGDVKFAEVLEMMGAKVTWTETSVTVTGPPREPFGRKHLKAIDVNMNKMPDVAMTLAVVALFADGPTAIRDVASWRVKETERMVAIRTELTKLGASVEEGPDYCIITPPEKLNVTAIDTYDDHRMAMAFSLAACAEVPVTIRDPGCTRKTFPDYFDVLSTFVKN", "assay": "EPSPS steady-state kinetics, TIPC variant", "from_the_text": "(§1) The double variants of the present invention were made using pMON58452 (FIG. 5) as the template. This pMON58452 EPSPS gene template contains the maize EPSPS double variant T102I, P106T (TIPT) that was constructed by mutagenesis of pMON70467 with the mutagenesis primers mEmut-9-U and mEmut-10-L. The various mutagenesis primer sequences were designed and then were synthesized by Invitrogen Corp., Custom Primers and used in combination in a PCR to create the variant EPSPS coding sequences. The PCR was set up in a 50 μl reaction in the following manner: dH2O 38 μl; 2 mM dNTP 1 μL; 10× buffer 5 μL; pMON58452 1 μL (10 ng); primer-U 2 μL; primer-L 2 μL; pfu Turbo enzyme 1 μL. PCR was carried out on a MJ Research PTC-200 thermal cycler using the following program: Step 1—94° C. for 30 seconds; Step 2—94° C. for 30 seconds; Step 3—55° C. for 1 minute; Step 4—68° C. for 14 minute; Step 5—go to step 2, 16 times; Step 6—End. At the end of the PCR, 1 μl of the restriction enzyme DpnI was added to each 50 μl of PCR reaction and the mixture was incubated at 37° C. for 1 hour. […]"}, "[2]": {"biological_target": "T2, maize (Zea mays) class I EPSPS variant TIPI (T102I, P106I), pMON42486 (Zea mays, UniProt O24566, P106I/T102I)", "T2 construct": "pMON42486", "T2 sequence (O24566 1-444 T102I/P106I)": "T1 sequence (O24566 1-444 T102I/P106C) with C106I", "assay": "EPSPS steady-state kinetics, TIPI variant", "assay_type": "biochemical", "from_the_text": "as §1"}}, "note": "Where a chain is given by its changes, count along the chain named."}
{"smiles": "O=C(O)CNCP(=O)(O)O", "note": "[glyphosate, N-phosphonomethylglycine]", "values": [{"measurement": "Ki", "setting": "[1]", "value": "818 ± 74.4", "unit": "µM"}, {"measurement": "Ki", "setting": "[2]", "value": "2500 ± 900", "unit": "µM"}]}
